Reference: EP2465840A1, “Terpene ether” (CABB GmbH, priority 2010, dated 2012)
Entries after “also recorded” stand apart in the source; their conditions may differ.

Legend:
Type in all cases: physicochemical
[1] = Appearance of cleaning formulation after 24 h
[2] = Visual evaluation of foam (foam appearance, bubble size); parameters: key to Blasengröße nach 1 min. / Blasengröße nach 5 min.: klein (1); mittel (2); mittel-groß (3); groß (4); sehr groß (5); key to Aussehen des Schaums nach 1 min. / Aussehen des Schaums nach 5 min.: verschwindend (1); locker (2); mittelkompakt (3); sehr kompakt (4)
Description: Die Qualität des Schaums wurde visuell nach der folgenden Methode festgestellt: 100 g der Lösung mit 0,5 % WAS wurden in einen 250 ml Glaszylinder mit Schraubverschluss und einem Innendurchmesser von 35 mm überführt. Der Zylinder wurde 10 mal gedreht und die Blasengröße und die Schaumkompaktheit wurden nach einer Minute nach dem Mischen und nach 5 Minuten ermittelt. Dabei erfolgte die Beurteilung auf der Grundlage der folgenden beschreibenden Parameter:
Aussehen des Schaums: verschwindend (1), locker (2), mittelkompakt (3), sehr kompakt (4)
Blasengröße: klein (1), mittel (2), mittel-groß (3), groß (4), sehr groß (5) Tabelle 4: […]

[3] = pH of cleaning formulation after addition of terpene ether
[4] = Foam height and foam stability of formulation; conditions: for h1: Schaumhöhe 5 Minuten nach dem Mischen; for h1 / h0: Lösung mit 0,5 % WAS; for h0: Schaumhöhe eine Minute nach dem Mischen; for Stabilität: Schaumstabilität (h1/h0)*100
Description: Die Schaumhöhe der Formulierungen wurde nach folgender Methode ermittelt: In einem 400 ml Becher wurden 100 g einer wässrigen Lösung mit 0,5 % WAS hergestellt. Für eine Minute wurde die Lösung bei […] runden […] wurde die […] Minute […]0) und 5 […]. Die Schaumstabilität in % ergibt sich dann über (h1/h0)*100.

[5] = Brookfield viscosity (25°C) of cleaning formulation 24 h after addition of terpene ether
Description: Im Rahmen der vorliegenden Erfindung wird die Brookfield-Viskosität einer wässrigen Zusammensetzung vorzugsweise mittels einem RTV Brookfield-Viskosimeter bei 25°C ermittelt, besonders bevorzugt mit einer Spindel # 3 oder # 4.
Die in Tabelle 1 angegebene Reinigungsformulierung wurde untersucht. Tabelle 1: Reinigungsformulierung (WAS 15 %)
Zu dieser Formulierung wurden NP 1 oder NP 27 gegeben. Die gemessenen Brookfield-Viskositätswerte nach 24 Stunden werden in Tabelle 2 und 3 zusammengefasst. Tabelle 2: Brookfield-Viskosität (25°C)
Zu dieser Formulierung wurden NP 1 oder NP 27 sowie danach Natriumchlorid gegeben. Die gemessenen Brookfield-Viskositätswerte nach 24 Stunden werden in den folgenden Tabellen zusammengefasst. Tabelle 13: Brookfield-Viskosität (25°C)

[6] = Reinigungsformulierung enthaltend Coco Glucosid, +0,5 %
[7] = Reinigungsformulierung enthaltend Coco Glucosid, +1 %
[8] = Reinigungsformulierung enthaltend Coco Glucosid, +5 %
[9] = Reinigungsformulierung enthaltend Dinatriumlaurylsuccinat (wässrig), +0,5 %
[10] = Reinigungsformulierung enthaltend Dinatriumlaurylsuccinat (wässrig), +1 %
[11] = Reinigungsformulierung enthaltend Dinatriumlaurylsuccinat (wässrig), +5 %
[12] = Reinigungsformulierung enthaltend Coco Glucosid, 0,5 %
[13] = Reinigungsformulierung enthaltend Coco Glucosid, 1 %
[14] = Reinigungsformulierung enthaltend Coco Glucosid, 5 %
[15] = Reinigungsformulierung enthaltend Dinatriumlaurylsuccinat (wässrig), 0,5 %
[16] = Reinigungsformulierung enthaltend Dinatriumlaurylsuccinat (wässrig), 1 %
[17] = Reinigungsformulierung enthaltend Dinatriumlaurylsuccinat (wässrig), 5 %
[18] = Reinigungsformulierung enthaltend Dinatriumlaurylsuccinat (wässrig), +0,5 %, nach 24 Stunden
[19] = Reinigungsformulierung enthaltend Dinatriumlaurylsuccinat (wässrig), +1 %, nach 24 Stunden
[20] = Reinigungsformulierung enthaltend Dinatriumlaurylsuccinat (wässrig), +5 %, nach 24 Stunden
[21] = Reinigungsformulierung enthaltend Natriumlaurylethersulfat, Dinatriumcocoamphodiacetat, 0,5 % NaCl, +0,5 %, nach 24 Stunden
[22] = Reinigungsformulierung enthaltend Natriumlaurylethersulfat, Dinatriumcocoamphodiacetat, 0,5 % NaCl, +0,25 %, nach 24 Stunden
[23] = Reinigungsformulierung enthaltend Natriumlaurylethersulfat, Dinatriumcocoamphodiacetat, 0,5 % NaCl, +1 %, nach 24 Stunden
[24] = Reinigungsformulierung enthaltend Natriumlaurylethersulfat, Dinatriumcocoamphodiacetat, 0,5 % NaCl, +2 %, nach 24 Stunden
[25] = Reinigungsformulierung enthaltend Natriumlaurylethersulfat, Dinatriumcocoamphodiacetat, 1 % NaCl, +0,5 %, nach 24 Stunden
[26] = Reinigungsformulierung enthaltend Natriumlaurylethersulfat, Dinatriumcocoamphodiacetat, 1 % NaCl, +0,25 %, nach 24 Stunden
[27] = Reinigungsformulierung enthaltend Natriumlaurylethersulfat, Dinatriumcocoamphodiacetat, 1 % NaCl, +1 %, nach 24 Stunden
[28] = Reinigungsformulierung enthaltend Natriumlaurylethersulfat, Dinatriumcocoamphodiacetat, 1 % NaCl, +2 %, nach 24 Stunden
[29] = Reinigungsformulierung enthaltend Natriumlaurylethersulfat, Dinatriumcocoamphodiacetat, +0,5 %, nach 24 Stunden
[30] = Reinigungsformulierung enthaltend Natriumlaurylethersulfat, Dinatriumcocoamphodiacetat, +0,25 %, nach 24 Stunden
[31] = Reinigungsformulierung enthaltend Natriumlaurylethersulfat, Dinatriumcocoamphodiacetat, +1 %, nach 24 Stunden
[32] = Reinigungsformulierung enthaltend Natriumlaurylethersulfat, Dinatriumcocoamphodiacetat, +2 %, nach 24 Stunden

CC1(C)C2CCC1(C)C(OCC(O)CO)C2 (stereo not drawn) [NP 1, Glycerin-isobornylether]
Aussehen nach 24 h [1, 6]: transparent; also recorded: Gel-flüssig
Aussehen nach 24 h [1, 7]: transparent; also recorded: flüssig
Aussehen nach 24 h [1, 8]: weiß and flüssig
Aussehen nach 24 h [1, 9]: transparent; also recorded: flüssig
Aussehen nach 24 h [1, 10]: transparent; also recorded: Gel-flüssig
Aussehen nach 24 h [1, 11]: weiß and flüssig
Aussehen nach 24 h ([1]; Reinigungsformulierung enthaltend Natriumlaurylethersulfat, Dinatriumcocoamphodiacetat, 0,5 % NaCl, +0,5 %): transparent Gel-flüssig
Aussehen nach 24 h ([1]; Reinigungsformulierung enthaltend Natriumlaurylethersulfat, Dinatriumcocoamphodiacetat, 0,5 % NaCl, +0,25 %): transparent Gel-flüssig
Aussehen nach 24 h ([1]; Reinigungsformulierung enthaltend Natriumlaurylethersulfat, Dinatriumcocoamphodiacetat, 0,5 % NaCl, +1 %): transparent Gel
Aussehen nach 24 h ([1]; Reinigungsformulierung enthaltend Natriumlaurylethersulfat, Dinatriumcocoamphodiacetat, 0,5 % NaCl, +2 %): transparent flüssig
Aussehen nach 24 h ([1]; Reinigungsformulierung enthaltend Natriumlaurylethersulfat, Dinatriumcocoamphodiacetat, 1 % NaCl, +0,5 %): transparent Gel
Aussehen nach 24 h ([1]; Reinigungsformulierung enthaltend Natriumlaurylethersulfat, Dinatriumcocoamphodiacetat, 1 % NaCl, +0,25 %): transparent Gel
Aussehen nach 24 h ([1]; Reinigungsformulierung enthaltend Natriumlaurylethersulfat, Dinatriumcocoamphodiacetat, 1 % NaCl, +1 %): transparent Gel
Aussehen nach 24 h ([1]; Reinigungsformulierung enthaltend Natriumlaurylethersulfat, Dinatriumcocoamphodiacetat, 1 % NaCl, +2 %): transparent flüssig
Aussehen nach 24 h ([1]; Reinigungsformulierung enthaltend Natriumlaurylethersulfat, Dinatriumcocoamphodiacetat, +0,5 %): transparent flüssig
Aussehen nach 24 h ([1]; Reinigungsformulierung enthaltend Natriumlaurylethersulfat, Dinatriumcocoamphodiacetat, +0,25 %): transparent flüssig
Aussehen nach 24 h ([1]; Reinigungsformulierung enthaltend Natriumlaurylethersulfat, Dinatriumcocoamphodiacetat, +1 %): transparent Gel-flüssig
Aussehen nach 24 h ([1]; Reinigungsformulierung enthaltend Natriumlaurylethersulfat, Dinatriumcocoamphodiacetat, +2 %): transparent Gel-flüssig
Aussehen des Schaums nach 1 min. [2, 6]: 3
Aussehen des Schaums nach 5 min. [2, 6]: 1
Blasengröße nach 1 min. [2, 6]: 3
Blasengröße nach 5 min. [2, 6]: 5
Aussehen des Schaums nach 1 min. [2, 7]: 3
Aussehen des Schaums nach 5 min. [2, 7]: 1
Blasengröße nach 1 min. [2, 7]: 3
Blasengröße nach 5 min. [2, 7]: 5
Aussehen des Schaums nach 1 min. [2, 8]: 3
Aussehen des Schaums nach 5 min. [2, 8]: 1
Blasengröße nach 1 min. [2, 8]: 3
Blasengröße nach 5 min. [2, 8]: 5
Aussehen des Schaums nach 1 min. [2, 9]: 3
Aussehen des Schaums nach 5 min. [2, 9]: 2
Blasengröße nach 1 min. [2, 9]: 3
Blasengröße nach 5 min. [2, 9]: 4
Aussehen des Schaums nach 1 min. [2, 10]: 3
Aussehen des Schaums nach 5 min. [2, 10]: 2
Blasengröße nach 1 min. [2, 10]: 3
Blasengröße nach 5 min. [2, 10]: 4
Aussehen des Schaums nach 1 min. [2, 11]: 3
Aussehen des Schaums nach 5 min. [2, 11]: 1
Blasengröße nach 1 min. [2, 11]: 4
Blasengröße nach 5 min. [2, 11]: 5
pH [3, 6]: 6
pH [3, 7]: 6
pH [3, 8]: 6
pH [3, 9]: 6,3
pH [3, 10]: 6,3
pH [3, 11]: 6,3
h1 [4, 12]: 200 mm
h0 [4, 12]: 230 mm
Stabilität [4, 12]: 87%
h1 [4, 13]: 210 mm
h0 [4, 13]: 235 mm
Stabilität [4, 13]: 89%
h1 [4, 14]: 230 mm
h0 [4, 14]: 260 mm
Stabilität [4, 14]: 88%
h1 [4, 15]: 220 mm
h0 [4, 15]: 245 mm
Stabilität [4, 15]: 90%
h1 [4, 16]: 225 mm
h0 [4, 16]: 250 mm
Stabilität [4, 16]: 90%
h1 [4, 17]: 225 mm
h0 [4, 17]: 250 mm
Stabilität [4, 17]: 90%
BF-Viskosität (2,5 rpm) [5, 6]: 18200 mPas
BF-Viskosität (5 rpm) [5, 6]: 17800 mPas
BF-Viskosität (2,5 rpm) [5, 7]: 3400 mPas
BF-Viskosität (5 rpm) [5, 7]: 3300 mPas
BF-Viskosität (2,5 rpm) [5, 8]: 1600 mPas
BF-Viskosität (5 rpm) [5, 8]: 1100 mPas
BF-Viskosität (2,5 rpm) [5, 18]: 6200 mPas
BF-Viskosität (5 rpm) [5, 18]: 6100 mPas
BF-Viskosität (2,5 rpm) [5, 19]: 17600 mPas
BF-Viskosität (5 rpm) [5, 19]: 17200 mPas
BF-Viskosität (2,5 rpm) [5, 20]: 3800 mPas
BF-Viskosität (5 rpm) [5, 20]: 1800 mPas
BF-Viskosität (2,5 rpm) [5, 21]: 22800 mPas
BF-Viskosität (5 rpm) [5, 21]: 21000 mPas
BF-Viskosität (2,5 rpm) [5, 22]: 17200 mPas
BF-Viskosität (5 rpm) [5, 22]: 16100 mPas
BF-Viskosität (2,5 rpm) [5, 23]: 32000 mPas
BF-Viskosität (5 rpm) [5, 23]: 29600 mPas
BF-Viskosität (2,5 rpm) [5, 24]: 12800 mPas
BF-Viskosität (5 rpm) [5, 24]: 12600 mPas
BF-Viskosität (2,5 rpm) [5, 25]: 37600 mPas
BF-Viskosität (5 rpm) [5, 25]: 33200 mPas
BF-Viskosität (2,5 rpm) [5, 26]: 31200 mPas
BF-Viskosität (5 rpm) [5, 26]: 27600 mPas
BF-Viskosität (2,5 rpm) [5, 27]: 38400 mPas
BF-Viskosität (5 rpm) [5, 27]: 36000 mPas
BF-Viskosität (2,5 rpm) [5, 28]: 4400 mPas
BF-Viskosität (5 rpm) [5, 28]: 4200 mPas
BF-Viskosität (2,5 rpm) [5, 29]: 10400 mPas
BF-Viskosität (5 rpm) [5, 29]: 10200 mPas
BF-Viskosität (2,5 rpm) [5, 30]: 7200 mPas
BF-Viskosität (5 rpm) [5, 30]: 7200 mPas
BF-Viskosität (2,5 rpm) [5, 31]: 22800 mPas
BF-Viskosität (5 rpm) [5, 31]: 22000 mPas
BF-Viskosität (2,5 rpm) [5, 32]: 18400 mPas
BF-Viskosität (5 rpm) [5, 32]: 18200 mPas
